Type in all cases: biochemical
The target in assay [1] is PAK1 (Homo sapiens, UniProt Q13153). Nature of the assay: In vitro PAK inhibition assay (SelectScreen, Ser/Thr 19 peptide). Summed up: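 Kinase reaction ran in 50 mM HEPES pH 7.5, 0.01% BRIJ-35, 10 mM MgCl2, 1 mM EGTA with Ser/Thr 19 peptide for 60 min at room temperature, followed by 60 min protease development. Fluorescence gave percent phosphorylation. Compounds were tested as 10-point, 3-fold titrations in 1% DMSO final.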

Assay [2] has as its target PAK2 (PAK65) (Homo sapiens, UniProt Q13177). Nature of the assay: In vitro PAK inhibition assay (SelectScreen, Ser/Thr 20 peptide). A digest of the protocol: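 FRET-based peptide cleavage assay: 0.29-6 ng PAK2 and 2 μM Ser/Thr 20 peptide in 50 mM HEPES pH 7.5, 10 mM MgCl2, 1 mM EGTA, 0.01% BRIJ-35, 1% DMSO final. Kinase reaction 60 min at room temperature, then 60 min development; 10-point 3-fold titrations, percent phosphorylation from fluorescence.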

The target of assay [3] is PAK3 (Homo sapiens, UniProt O75914). The assay is described as above. Summed up: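 PAK3 phosphorylation of Ser/Thr 20 peptide in 50 mM HEPES pH 7.5, 0.01% BRIJ-35, 10 mM MgCl2, 1 mM EGTA, 1% DMSO final; 60 min at room temperature, then 60 min development reaction with fluorescence read-out. 10-point 3-fold titrations; percent phosphorylation from 0% and 100% phosphopeptide controls.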
Sequence of PAK3 (O75914 whole entry): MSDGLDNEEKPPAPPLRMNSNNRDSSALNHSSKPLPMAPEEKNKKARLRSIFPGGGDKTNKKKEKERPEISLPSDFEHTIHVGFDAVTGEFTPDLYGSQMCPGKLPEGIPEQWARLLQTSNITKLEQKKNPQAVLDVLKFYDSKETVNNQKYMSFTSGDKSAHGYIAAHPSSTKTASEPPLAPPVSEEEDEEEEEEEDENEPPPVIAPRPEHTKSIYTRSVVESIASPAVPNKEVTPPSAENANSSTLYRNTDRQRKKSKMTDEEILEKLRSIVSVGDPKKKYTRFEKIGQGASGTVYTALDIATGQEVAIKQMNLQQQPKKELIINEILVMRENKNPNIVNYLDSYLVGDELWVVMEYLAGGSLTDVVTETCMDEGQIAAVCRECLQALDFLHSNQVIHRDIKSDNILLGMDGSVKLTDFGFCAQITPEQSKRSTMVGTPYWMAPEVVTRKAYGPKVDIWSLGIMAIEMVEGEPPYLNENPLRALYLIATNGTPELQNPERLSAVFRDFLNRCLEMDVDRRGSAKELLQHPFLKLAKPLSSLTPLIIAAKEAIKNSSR

For assay [4], the target named is PAK4 (Homo sapiens, UniProt O96013). Described as above. Summed up: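 FRET-based Ser/Thr 20 peptide phosphorylation: 0.1-0.75 ng PAK4, 2 μM peptide in 50 mM HEPES pH 7.5, 10 mM MgCl2, 1 mM EGTA, 0.01% BRIJ-35, 1% DMSO; 60 min at room temperature, then 60 min protease development. 10-point 3-fold titrations; IC50 from sigmoidal fit.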
Sequence of PAK4 (O96013 whole entry): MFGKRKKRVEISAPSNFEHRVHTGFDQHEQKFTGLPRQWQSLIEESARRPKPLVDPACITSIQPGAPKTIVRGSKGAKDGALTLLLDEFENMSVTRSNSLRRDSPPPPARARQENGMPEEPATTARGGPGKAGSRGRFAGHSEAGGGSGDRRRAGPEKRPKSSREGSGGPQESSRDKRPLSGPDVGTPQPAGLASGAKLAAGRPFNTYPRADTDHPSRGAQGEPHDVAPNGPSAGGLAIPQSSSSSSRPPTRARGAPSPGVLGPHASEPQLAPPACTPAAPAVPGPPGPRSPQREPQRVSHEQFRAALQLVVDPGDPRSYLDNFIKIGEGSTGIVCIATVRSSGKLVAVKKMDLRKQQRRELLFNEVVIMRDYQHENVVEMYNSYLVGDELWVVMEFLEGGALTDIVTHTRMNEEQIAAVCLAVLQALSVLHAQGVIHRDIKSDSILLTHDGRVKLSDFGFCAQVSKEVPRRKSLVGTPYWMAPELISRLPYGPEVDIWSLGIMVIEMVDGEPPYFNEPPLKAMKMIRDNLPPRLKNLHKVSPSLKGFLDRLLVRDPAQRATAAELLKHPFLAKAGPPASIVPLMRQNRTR

Each structure is given as a SMILES string.

Sequence of PAK2 (PAK65) (Q13177 whole entry): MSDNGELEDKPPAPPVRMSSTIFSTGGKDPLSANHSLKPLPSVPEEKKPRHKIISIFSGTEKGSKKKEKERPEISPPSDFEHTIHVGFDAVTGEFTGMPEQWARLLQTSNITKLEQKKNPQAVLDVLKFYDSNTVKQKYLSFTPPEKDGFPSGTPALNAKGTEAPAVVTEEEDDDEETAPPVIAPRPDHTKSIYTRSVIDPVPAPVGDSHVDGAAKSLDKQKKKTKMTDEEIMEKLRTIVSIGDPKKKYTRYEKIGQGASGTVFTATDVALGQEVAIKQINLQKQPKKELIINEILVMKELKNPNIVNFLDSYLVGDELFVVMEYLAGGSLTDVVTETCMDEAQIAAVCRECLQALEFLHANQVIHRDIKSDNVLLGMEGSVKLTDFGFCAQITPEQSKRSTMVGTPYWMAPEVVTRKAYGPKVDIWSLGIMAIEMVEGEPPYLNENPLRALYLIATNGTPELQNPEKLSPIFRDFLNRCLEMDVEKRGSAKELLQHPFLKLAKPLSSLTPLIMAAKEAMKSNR
Sequence of PAK1 (Q13153 whole entry): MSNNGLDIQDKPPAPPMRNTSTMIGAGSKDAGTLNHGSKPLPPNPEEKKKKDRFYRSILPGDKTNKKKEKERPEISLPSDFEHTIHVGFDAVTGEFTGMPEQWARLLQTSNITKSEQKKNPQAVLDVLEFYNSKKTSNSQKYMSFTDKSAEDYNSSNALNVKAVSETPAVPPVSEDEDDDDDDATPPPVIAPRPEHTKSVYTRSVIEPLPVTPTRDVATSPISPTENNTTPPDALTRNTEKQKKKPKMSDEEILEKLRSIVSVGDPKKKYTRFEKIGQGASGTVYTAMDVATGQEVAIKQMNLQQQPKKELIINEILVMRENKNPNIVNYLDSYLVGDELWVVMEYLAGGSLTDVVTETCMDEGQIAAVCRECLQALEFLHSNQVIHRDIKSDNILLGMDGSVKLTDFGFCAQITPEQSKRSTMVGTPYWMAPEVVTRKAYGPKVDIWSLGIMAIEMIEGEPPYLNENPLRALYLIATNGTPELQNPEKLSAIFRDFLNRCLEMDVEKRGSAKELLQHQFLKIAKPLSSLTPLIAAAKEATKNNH

As usually defined, the IC50 is the point on the concentration scale where inhibition reaches its midpoint. Lower therefore signals greater potency. Turning to `CCn1c(=O)c(-c2ccc(-c3cncnc3)cc2Cl)cc2cnc(Nc3ccc(N4CCN(C)CC4)c(F)c3)nc21`, the 50% inhibitory concentration (IC50) is < 50 nM in assay [1], < 50 nM in assay [2], < 50 nM in assay [3] and ≥ 5000 nM in assay [4].

On to `CCn1c(=O)c(-c2ccc(-c3noc(C)n3)cc2)cc2cnc(Nc3ccc(C4CCN(C)CC4)cc3)nc21`, for which the half-inhibitory concentration (IC50) is 50 to 500 nM in assay [1], 50 to 500 nM in assay [2], 50 to 500 nM in assay [3] and ≥ 5000 nM in assay [4].

For `CCn1c(=O)c(-c2ccc(-c3noc(C)n3)cc2Cl)cc2cnc(Nc3ccc(N4CCN(C)CC4)cc3)nc21`, the IC50 is < 50 nM in assay [1], < 50 nM in assay [2], < 50 nM in assay [3] and 500 to 5000 nM in assay [4].

With `CCn1c(=O)c(-c2ccc(-c3cnc(C)o3)cc2Cl)cc2cnc(Nc3ccc(C4CCN(C)CC4)cc3)nc21`, the IC50 in assay [1] was < 50 nM; in assay [2], 50 to 500 nM; in assay [3] it was 50 to 500 nM; in assay [4], ≥ 5000 nM.

On to `CCn1c(=O)c(-c2ccc(-c3cccnc3C)cn2)cc2cnc(Nc3ccc(C4CCN(C)CC4)cc3)nc21`, for which the IC50 in assay [1] was > 5000 nM; in assay [2], > 5000 nM; in assay [3] it was > 5000 nM; in assay [4], ≥ 5000 nM.

On to `CN(C)CCc1ccc(Nc2ncc3cc(-c4ccc(-c5cccnc5N(C)C)cc4Cl)c(=O)n(C)c3n2)cc1`, for which the IC50 in assay [1] was 50 to 500 nM; in assay [2], 500 to 5000 nM; in assay [3], 500 to 5000 nM; in assay [4], ≥ 5000 nM.

With `Cc1nc(-c2ccc(-c3cc4cnc(Nc5ccc(CCN(C)C)cc5)nc4n(C)c3=O)c(Cl)c2)no1`, the IC50 in assay [1] is < 50 nM; in assay [2] it was < 50 nM; in assay [3], < 50 nM; in assay [4], ≥ 5000 nM.

On to `CCn1c(=O)c(-c2ccc(-c3cnc(C)s3)cn2)cc2cnc(Nc3ccc(C4CCN(C)CC4)cc3)nc21`, for which the IC50 was 500 to 5000 nM in assay [1], > 5000 nM in assay [2], > 5000 nM in assay [3] and ≥ 5000 nM in assay [4].

For the compound `CCn1c(=O)c(-c2ccc(-c3ncncc3F)cc2Cl)cc2cnc(Nc3ccc(C4CCN(C)CC4)cc3)nc21`, the IC50 in assay [1] is < 50 nM; in assay [2], < 50 nM; in assay [3], < 50 nM; in assay [4], 500 to 5000 nM.

For the compound `CCn1c(=O)c(-c2ccc(-c3noc(C)n3)cc2Cl)cc2cnc(Nc3ccc(CCN4CCOCC4)cc3)nc21`, the IC50 in assay [1] was 50 to 500 nM; in assay [2], 50 to 500 nM; in assay [3], 50 to 500 nM; in assay [4] it was ≥ 5000 nM.

For the compound `CCn1c(=O)c(-c2ccc(-c3noc(C(F)(F)F)n3)cc2Cl)cc2cnc(Nc3ccc(N4CCN(C)CC4)cc3)nc21`, the IC50 in assay [1] was < 50 nM; in assay [2], < 50 nM; in assay [3] it was 50 to 500 nM; in assay [4], ≥ 5000 nM.

With `CCOC(=O)c1cncnc1-c1ccc(-c2cc3cnc(Nc4ccc(C5CCN(C)CC5)cc4)nc3n(CC)c2=O)c(Cl)c1`, the IC50 was 500 to 5000 nM in assay [1], 500 to 5000 nM in assay [2], 500 to 5000 nM in assay [3] and ≥ 5000 nM in assay [4].

For `CCn1c(=O)c(-c2ccc(C3CC3)s2)cc2cnc(Nc3ccc(N4CCN(C)CC4)cc3)nc21`, the IC50 is > 5000 nM in assay [1], > 5000 nM in assay [2], > 5000 nM in assay [3] and ≥ 5000 nM in assay [4].

For `CN(C)CCc1ccc(Nc2ncc3cc(-c4ccc(-c5cccnc5F)cc4Cl)c(=O)n(C)c3n2)cc1`, the IC50 in assay [1] was < 50 nM; in assay [2] it was < 50 nM; in assay [3], < 50 nM; in assay [4], 500 to 5000 nM.

On to `CCn1c(=O)c(-c2ccc(-c3cccnc3F)cc2Cl)cc2cnc(Nc3ccc(C4=CCNCC4)cc3)nc21`, for which the IC50 in assay [1] is < 50 nM; in assay [2], < 50 nM; in assay [3], < 50 nM; in assay [4], 50 to 500 nM.

For the compound `CN1CCC(c2ccc(Nc3ncc4cc(-c5cc(F)c(-c6cccnc6F)cc5Cl)c(=O)n(C)c4n3)cc2)CC1`, the IC50 in assay [1] was < 50 nM; in assay [2] it was < 50 nM; in assay [3], 50 to 500 nM; in assay [4], ≥ 5000 nM.

With `CCn1c(=O)c(-c2ccc(-c3scnc3C)cc2Cl)cc2cnc(Nc3ccc(N4CCNCC4)cc3)nc21`, the IC50 is < 50 nM in assay [1], < 50 nM in assay [2], < 50 nM in assay [3] and 500 to 5000 nM in assay [4].

In the case of `CCN1CCC(c2ccc(Nc3ncc4cc(-c5ccc(-c6ccc(C)nc6F)cc5Cl)c(=O)n(CC)c4n3)cc2)CC1`, the IC50 in assay [1] was 50 to 500 nM; in assay [2] it was 50 to 500 nM; in assay [3], 50 to 500 nM; in assay [4], 500 to 5000 nM.

For `CN1CCC(c2ccc(Nc3ncc4cc(-c5ccc(-c6cccnc6F)cc5Cl)c(=O)n(C)c4n3)cc2)CC1`, the IC50 in assay [1] is < 50 nM; in assay [2] it was < 50 nM; in assay [3] it was < 50 nM; in assay [4] it was ≥ 5000 nM.

On to `CCn1c(=O)c(-c2ccc(-c3cnc(C)s3)cc2Cl)cc2cnc(Nc3ccc(C4=CCNCC4)cc3)nc21`, for which the 50% inhibitory concentration (IC50) in assay [1] is < 50 nM; in assay [2], < 50 nM; in assay [3], < 50 nM; in assay [4] it was 500 to 5000 nM.

On to `CCn1c(=O)c(-c2ccc(-c3ccoc3)cc2Cl)cc2cnc(Nc3ccc(N4CCN(C)CC4)cc3)nc21`, for which the IC50 was < 50 nM in assay [1], < 50 nM in assay [2], < 50 nM in assay [3] and ≥ 5000 nM in assay [4].

`CCn1c(=O)c(-c2ccc(-c3cccnc3)cc2Cl)cc2cnc(Nc3ccc(C4CCNC4)cc3)nc21` (centres unmarked): the IC50 was < 50 nM in assay [1], < 50 nM in assay [2], < 50 nM in assay [3] and 500 to 5000 nM in assay [4].

Turning to `CCn1c(=O)c(-c2ccc(-c3scnc3C)cc2Cl)cc2cnc(Nc3ccc(N4CCN(C)CC4)cc3)nc21`, the IC50 in assay [1] was < 50 nM; in assay [2] it was < 50 nM; in assay [3], < 50 nM; in assay [4], ≥ 5000 nM.

`CCn1c(=O)c(-c2ccc(-c3noc(C)n3)cc2Cl)cc2cnc(Nc3ccc(C4CCN(C)CC4)c(F)c3)nc21`: the IC50 in assay [1] is < 50 nM; in assay [2] it was < 50 nM; in assay [3], < 50 nM; in assay [4], 500 to 5000 nM.

In the case of `Cc1ncc(-c2ccc(-c3cc4cnc(Nc5ccc(C6CCN(C)CC6)cc5)nc4n(C)c3=O)c(Cl)c2)s1`, the IC50 in assay [1] was < 50 nM; in assay [2], < 50 nM; in assay [3], 50 to 500 nM; in assay [4], ≥ 5000 nM.

Consider `CCn1c(=O)c(-c2ccc(-c3cncs3)cc2Cl)cc2cnc(Nc3ccc(N4CCN(C(C)C)CC4)c(F)c3)nc21`, for which the IC50 is < 50 nM in assay [1], < 50 nM in assay [2], < 50 nM in assay [3] and ≥ 5000 nM in assay [4].

Regarding `CCn1c(=O)c(-c2ccc(-c3cccnc3)cc2Cl)cc2cnc(Nc3ccccc3)nc21`, the half-maximal inhibitory concentration (IC50) in assay [1] is 50 to 500 nM; in assay [2], 500 to 5000 nM; in assay [3] it was 500 to 5000 nM; in assay [4], ≥ 5000 nM.

Consider `CCn1c(=O)c(-c2ccc(-c3noc(C)n3)cc2Cl)cc2cnc(Nc3ccc(C4CCNCC4)c(F)c3)nc21`, for which the IC50 was < 50 nM in assay [1], < 50 nM in assay [2], < 50 nM in assay [3] and 500 to 5000 nM in assay [4].

As to `CCn1c(=O)c(-c2ccc(-c3ncccn3)cc2Cl)cc2cnc(Nc3ccc(N4CCN(C)CC4)cc3)nc21`, the IC50 in assay [1] is < 50 nM; in assay [2] it was < 50 nM; in assay [3], < 50 nM; in assay [4], 500 to 5000 nM.

Take `CCn1c(=O)c(-c2ccc(-c3ccsc3)cc2Cl)cc2cnc(Nc3ccc(N4CCN(C)CC4)cc3)nc21`: the IC50 in assay [1] was < 50 nM; in assay [2], < 50 nM; in assay [3], < 50 nM; in assay [4], ≥ 5000 nM.

`CCn1c(=O)c(-c2ccc(-c3cccnc3C)cc2Cl)cc2cnc(Nc3ccc(C4CCN(C(C)C)CC4)cc3)nc21`: the IC50 in assay [1] was < 50 nM; in assay [2] it was 50 to 500 nM; in assay [3], 50 to 500 nM; in assay [4], ≥ 5000 nM.

In the case of `CCn1c(=O)c(-c2ccc(-c3cncnc3)cc2Cl)cc2cnc(Nc3ccc(N4CCNCC4)c(F)c3)nc21`, the IC50 in assay [1] is < 50 nM; in assay [2], < 50 nM; in assay [3] it was < 50 nM; in assay [4], 500 to 5000 nM.

Take `CCn1c(=O)c(-c2ccc(-c3ccnn3C)cc2)cc2cnc(Nc3ccc(N4CCN(C)CC4)cc3)nc21`: the IC50 is 50 to 500 nM in assay [1], 500 to 5000 nM in assay [2], 500 to 5000 nM in assay [3] and ≥ 5000 nM in assay [4].

For the compound `CCN1CCC(c2ccc(Nc3ncc4cc(-c5ccc(-c6cccnc6C)cc5Cl)c(=O)n(C)c4n3)cc2)CC1`, the IC50 in assay [1] is < 50 nM; in assay [2], 50 to 500 nM; in assay [3], 50 to 500 nM; in assay [4], ≥ 5000 nM.

Regarding `CCn1c(=O)c(-c2ccc(-c3ccc(F)nc3C)cc2Cl)cc2cnc(Nc3ccc(C4CCNCC4)c(F)c3)nc21`, the IC50 was 50 to 500 nM in assay [1], 50 to 500 nM in assay [2], 50 to 500 nM in assay [3] and ≥ 5000 nM in assay [4].

Source of the values: patent publication US20140163026A1, “8-ETHYL-6-(ARYL)PYRIDO[2,3-D]PYRIMIDIN-7(8H)-ONES FOR THE TREATMENT OF NERVOUS SYSTEM DISORDERS AND CANCER” (Afraxis Holdings, Inc., priority 2011, published 2014).
